# Experimental data taken from patent US20210301306A1 (priority 2018, published 2021).
# System: normally fed mice
# Test: Feeding behavior in normally fed mice injected into the stomach wall with vector, then given CNO
# Format: in vivo
# Conditions: 1 mg/kg CNO, FIGS. 9A-9E
# Experimental: FIG. 3 depicts the response of normally fed […] mice injected into the stomach wall with retroAAV/rh10 expressing a DREADD (hD3q) which activates neurons in response to 1 mg/kg CNO. Animals injected with retroAAV/rh10 expressing the marker gene mCherry fed normally in response to CNO.
smiles,measurement,value
"C[N+]1([O-])CCN(C2=Nc3cc(Cl)ccc3Nc3ccccc32)CC1 [CNO, clozapine-N-oxide]",long term feeding behavior,long term stability of reduced feeding behavior
